# Experimental data from patent US10183059B2, “Method for treating microbial infection” (GENERAL BIOLOGICALS CORPORATION, priority 2015, dated 2019).
# No end group written: not given here.
# Experiments:
# [1] = tested on: Wild type (WT) Candida albicans; assay: Salt and pH tolerance of candidacidal activity; assay type: cell-based
# Method: Wild type (WT) Candida albicans was cultivated in a YPD medium at 30° C. overnight and then transferred to 5 ml of fresh YPD culture broth, cultivated subsequently for another 5 hours. After the fungi were collected by centrifugation, washed with 12.5 mM sodium acetate twice, redissolved with 12.5 mM NaOAc to yield a fungal concentration of 1.5×10^6 cells/ml. Fifty microliters of liquid fungal suspension was taken out to mix with 50 μl of sequentially diluted antimicrobial peptides and placed in different wells of a 96-well plate allowing to react for 1 hour at 37° C. (as shown in FIG. 4(A). Then, 50 μl of liquid fungal mixture was taken out and 450 μl PBS was added to terminate the reaction. Finally, 25 μl was taken out and inoculated on a solid YPD medium.
# och1Δ mutant strain = assay: Susceptibility of och1Δ mutant, CFU; assay type: cell-based, Candida albicans; settings: och1Δ versus SN250, 1 h
# Method: The SN250 and och1Δ mutant strains were grown overnight in YPD broth at 30° C. The overnight culture was then subcultured into fresh YPD medium and grown for 5 h. Cells were treated with different concentration of peptides for 1 h. After treatment, samples were serially diluted in PBS and 15 μl of each diluent was spotted onto YPD agar plates. Colony-forming units were counted after 24 h incubation at 30° C. The data were represented as the mean values±SD of three independent experiments.
# [2] = tested on: Candida albicans strain SC5314; assay: Fungal suppression at various concentrations and reaction times, colony count; assay type: cell-based; settings: 37° C., 12.5 mM NaOAc
# Method: To examine the activity of P-113 for killing fungus, fungal suppression assays were carried out at various concentrations or reaction times. Candida albicans strain SC5314 (wild type, WT) was cultivated in the Yeast extract Peptone Dextrose medium (YPD medium) at 30° C. overnight, transferred to 5 ml of fresh YPD culture broth, and then cultivated again for another 5 hours. After fungi were collected by centrifugation, the fungi were washed with 12.5 mM sodium acetate (NaOAc) twice, redissolved in each well of a 96-well plate with 12.5 mM NaOAc (1.5×10^6 cells in 0.1 ml of 12.5 mM NaOAc). Then, the fungi were treated with different concentrations of P-113 for different reaction times at 37° C. Around […] of Phosphate-buffered saline (PBS) was added into each well, took 25 μl of liquid fungi suspension out and inoculated on a solid YPD medium, after being cultivated at 30° C. for 24 hours, the number of colonies were counted.
# [3] = tested on: SC5314 strain of Candida albicans; assay: Effect of cell wall disrupting agents on peptide activity, CFU; assay type: cell-based; settings: Proteinase K 1 mg/ml, 30 min
# Method: The SC5314 strain of Candida albicans (wild type or WT) were grown overnight in YPD broth at 30° C. The overnight culture was then subcultured into fresh YPD medium and grown for 5 h. Cells were treated with Proteinase K (1 mg/ml) for 30 min or Zymolyase (5 mg/ml) for 1 h at 30° C., followed by reacting with different concentrations of the peptides for 1 h, respectively. After that, samples were serially diluted in phosphate-buffered saline (PBS) and 15 μl of each diluent was spotted onto YPD agar plates. Colony-forming units were counted after incubation at 30° C. for 24 h. The data were represented as the mean values±SD of three independent experiments.
# [4] = tested on: SC5314 strain of Candida albicans; assay: Intracellular ROS assay (DHE, MitoSOX Red, flow cytometry); assay type: cell-based; settings: 0.25 μM, 1 h, 37° C.
# Method: The SC5314 strain of Candida albicans (wild type or WT) were grown overnight in YPD broth at 30° C. The overnight culture was then subcultured into fresh YPD medium and grown for 5 h. Cells were harvested by centrifugation, washed twice with 12.5 mM sodium acetate (NaOAc) and resuspended in 12.5 mM NaOAc to a concentration of 1*10^7 cells/ml. The cells were treated with various AMPs (0.25 μM) for 1 h at 37° C. After treatment, cells were washed twice with 12.5 mM NaOAc. Dihydroethidium (DHE) is a superoxide indicator, and MitoSOX Red (MitoSOX) was introduced for selective detection of superoxide in the mitochondria of live cells. The intracellular ROS was measured using DHE (20 μM) staining for 30 min and MitoSOX Red (5 μM) for 60 min in PBS. Fluorescent detection was performed by flow cytometry.
# C. dubliniensis = assay type: cell-based
# Method: (§1) The antimicrobial activities against clinical isolates and drug-resistant strains of P-113 and its derived peptides were examined. The present invention evaluated the effect of P-113 on 15 clinical isolates of fungi belonging to the genus Candida (see Table 1). Clinical isolates were cultivated overnight at 30° C. under shaking in a YPD cultural broth (1% yeast extract, 2% peptone and 2% glucose), cells were centrifuged and washed with YPD, then cultivated again in a YPD culture broth allowing to grow for 5 hours (initial optical density at 600 nm [OD600]˜0.5). Cells were washed with PBS and then collected by centrifugation, redissolved in a culture broth (modified RPMI 1640 medium, LYM), the cell concentration was adjusted to ˜0.1 [OD600]/ml and then treated with P-113. After the mixed solution was cultivated under shaking at 37° C. and 5% CO2 for 24 hours, absorbance measurement (OD value) was performed to determine the minimum inhibitory concentration (MIC).
# C. parapsilosis = assay type: cell-based
# Method: as §1
# [5] = Circular dichroism secondary structure in 85% TFE, BeStSel analysis; assay type: physicochemical; settings: CD analyzed by BeStSel
# Method: The present invention utilized a Circular Dichroism Spectrometer (AVIV Company) to observe the secondary structure of the antimicrobial peptides. Circular dichoism spectra of P-113 and its derivatives were recorded over the wavelength range of 195-260 nm with readings every 1 nm by using a quartz cuvette having 1 mm optical path length. Ellipticities were represented as mean residue molar ellipticity (MRE). P-113, P-113Du and P-113Tri were dissolved in 85% trifluoroethanol (TFE) solution.
# [6] = tested on: Candida albicans strain SC5314 biofilms; assay: Biofilm cell viability, XTT reduction assay; assay type: cell-based; settings: biofilm cells, 37° C., 1 hr
# Method: Candida albicans strain SC5314 was cultivated in a YPD medium overnight and then transferred to a fresh YPD culture broth, diluted until the concentration was 3×10^5 cells/ml. 100 μl of liquid fungal suspension was placed in a 96-well plate for cultivation at 37° C. for 24 hours, formed biofilms were washed with sodium acetate (12.5 mM). Then, sequence-diluted antimicrobial peptides P-113, P-113Du and P-113Tri (0-200 μM) were added, reacted at 37° C. for 1 hour, washed with PBS twice. The cellular activity of the biofilms was determined by using XTT (2,3-bis(2-methoxy-4-nitro-5-sulfophenyl)-2H-tetrazolium-5-carboxanilide) reduction assays to analyze the cell survival rate. To perform this reaction, XTT (0.5 mg/ml) and Menadione (0.5 μM) were dissolved in PBS and then added into a 96-well plate formed by biofilms, reacted at 30° C. for 30 minutes, the optical density was measured at wavelength 490 nm (OD490). The cellular activity of the biofilms was represented as a percentage.
substance,measurement,setting,value
"AKRHHGYKRKFH-NH2 [P-113, AKRHHGYKRKFH-NH2]",candidacidal activity,"[1]; 12.5 mM sodium acetate, 37° C., 1 hour",exhibited candidacidal activity
same,candidacidal activity,[1]; 62.25 and 93.75 mM salt,reduced activity
same,candidacidal activity,[1]; pH 4.5,activity was lost
same,candidacidal activity,[1]; pH 6 and 8,exhibited candidacidal activity
same,susceptibility of och1Δ mutant to peptide,och1Δ mutant strain,resistant
same,"anti-Candida activity, dependence on concentration and time",[2],time-dependent and dose-dependent
same,candidacidal activity after proteinase K treatment of cells,[3],failed to kill C. albicans
same,intracellular ROS formation,[4],induced intracellular ROS formation
same,Minimum Inhibitory Concentration,C. dubliniensis,6.25 µg/mL
same,Minimum Inhibitory Concentration,C. parapsilosis,0.78 µg/mL
same,content of the α-helical secondary structure,[5],2.9%
same,concentration causing 50% reduction in the metabolic activity (50% RMA),[6],> 300 µg/mL
